Read-outs that look alike come from different tables or passages of the source.
Key:
[1] = PAMPA-BBB permeability (porcine polar brain lipid extract); assay type: in vitro ADME; details: PAMPA
Procedure: (§1) The following protocol was applied to measure the Pe through the artificial membrane to predict oral absorption and BBB permeation. In order to study the g.i. permeability, a 2% solution (w/v) of egg lecithin (phosphatidyl choline > 98%, PC) in dodecane was employed as an artificial membrane solution. The effective permeability of BBB was measured using phospholipid mixture from porcine polar brain lipid extract, composed by PC 12.6%, phosphatidylethanolamine (PE) 33.1%, phosphatidylserine (PS) 18.5%, phosphatidylinositol (PI) 4.1%, phospatidic acid (PA) 0.8% and 30.9% of other compounds (purchased from Avantis Polar Lipids, Alabaster, AL, USA). Each donor filtration plate well was then impregnated with 5 µL of this solution carefully, and immediately after 150 µL of phosphate buffer (pH 7.4/pH 6.5), containing co-drug 1 500 µM and iPrOH 20% as co-solvent was added. Then the drug-filled donor plate was placed into the acceptor plate that had been prefilled with the same buffer (300 µL) as acceptor solution. After plate lid was replaced, the resulting assembled donor-acceptor plates were incubated at r.t. for 2 h for PAMPA-GI and 18 h for PAMPA-BBB, following which drugs concentration in the acceptor and donor solutions were determined by HPLC [37].
(§2) Log Pe can be calculated from the equation below: [drawing 10] (2) where Pe is the effective permeability coefficient (cm x s^−1), VD is volume of donor compartment (0.15 cm^3) and VA is volume of acceptor compartment (0.30 cm^3), A is effective filter area (0.28 cm^2), t is incubation time for the assay (s), Cacceptor is the concentration of the compound in the acceptor compartment at the completion of the assay, and Cequilibrium is the concentration of compound at theoretical equilibrium.

APP = details: 24 h
Procedure: For detection of cell viability, a Trypan blue dye exclusion test has been performed [33].
Cell lysates (20 µg) have been electrophoresed and transferred to nitrocellulose membrane. […] Immunoreactive bands have been detected by ECL detection system (Amersham Intl., Buckinghamshire, UK) and analysed by densitometry. Densitometric values, expressed as Integrated Optical Intensity (I.O.I.), have been estimated in a CHEMIDOC XRS system by the QuantiOne 1-D analysis software (BioRad, Richmond, CA, USA). Values obtained have been normalized basing on densitometric values of internal β tubulin. Statistical analysis has been performed using the analysis of variance (ANOVA). Results have been expressed as mean ± SD. Values of p < 0.05 have been considered statistically significant.

[2] = IAM-HPLC affinity for membrane phospholipids (logKIAM/W); assay type: physicochemical; details: IAM.PC.MG column, pH 7.0 phosphate buffer/acetonitrile, extrapolated to 100% aqueous eluent
Procedure: n-Octanol/water partition coefficients were theoretically calculated by the program clogP for windows version 2.0 (Biobyte Corp., Claremont, CA, USA). Affinity for membrane phospholipids, so called “phospholipophilicity”, was measured by HPLC on a phospholipid stationary phase. […] liquid chromatograph (Waters-Millipore, Milford, MA, USA), equipped with a 7125 Rheodyne injection valve and a 486 UV detector (Waters) set at 246 nm, was used. The column was an IAM.PC.MG (Immobilized Artificial Membrane-PhosphatidylCholine-MethylGlycolate) (4.6 mm × 150 mm) (Regis Chemical Company, Morton Grove, IL, USA). The mobile phase was 0.01 M phosphate buffer at pH 7.0 and acetonitrile at percentages ranging from 10 to 35 percent (v/v) (from 1.0 to 4.0 mL/min). The chromatography was carried out at room temperature. All samples were dissolved in methanol (ca. 10^-3 M) and 20 μL samples were injected in the chromatograph. Chromatographic retention data are expressed as the logarithm of the capacity factor, log k, defined as: log k = log [(tr - t0)/t0] (1) where tr and t0 are the retention times of the drug and a non-retained compound (citric acid), respectively. The log k values relative to 100% aqueous eluent (logKIAM/W) were calculated by performing a polycratic method of extrapolation. Each compound was eluted with at least three different mobile phases containing acetonitrile in different percentages (φ). […] All values of log k reported are the average of at least three measurements; the 95% confidence interval never exceeded 0.04 for each log k value. Possible occurrence of retention changes due to column aging was monitored by checking the retention times of five test compounds (amlodipine, p-nitroaniline, toluene, isradipine, and ketoprofen).

Aβ-42 = assay: Western blotting of Aβ-42 expression in CTXTNA2 astrocytes (in vitro γ-secretase activity); assay type: cell-based, rat; details: 24 h
Procedure: CTXTNA2 cell line, established from primary cultures of type 1 astrocytes from brain frontal cortex tissue of 1 day old rats, was obtained by ECACC (Salisbury, UK). Cells have been maintained in DMEM, 10% FBS at 37 °C, 5% CO2 until sub-confluence and incubated for 24 h with a DMSO solution of drug (concentrations ranging from 1 µM to 100 µM). For detection of cell viability, a Trypan blue dye exclusion test has been performed.
Cell lysates (20 µg) have been electrophoresed and transferred to nitrocellulose membrane. Nitrocellulose membranes, blocked in 5% non-fat milk, 10 mmol/L Tris pH 7.5, 100 mmol/L NaCl, 0.1% Tween-20, have been probed with mouse APP (Millipore, Billerica, MA, USA) and Aβ (Alpha Diagnostic Intl, San Antonio, TX, USA) monoclonal antibodies (Santa Cruz Biotechnology, Santa Cruz, CA, USA), then incubated in the presence of specific enzyme conjugated IgG horseradish peroxidase. Immunoreactive bands have been detected by ECL detection system (Amersham Intl., Buckinghamshire, UK) and analysed by densitometry. Densitometric values, expressed as Integrated Optical Intensity (I.O.I.), have been estimated in a CHEMIDOC XRS system by the QuantiOne 1-D analysis software (BioRad, Richmond, CA, USA). Values obtained have been normalized basing on densitometric values of internal β tubulin. Statistical analysis has been performed using the analysis of variance (ANOVA). Results have been expressed as mean ± SD. Values of p < 0.05 have been considered statistically significant.

[3] = PAMPA-GI permeability (egg lecithin in dodecane); assay type: in vitro ADME; details: read-out: PAMPA-GI Pe
Procedure: as §1, §2

[4] = pH 7.4, 18 h of incubation, read-out: PAMPA-BBB Pe

| SMILES | Papp at 18 h, 500 µM ([1]; read-out: Pe, BBB penetration) [nm/s] | melting point [°C] | Expression of APP (APP; 1 µM) | Expression of APP (APP; 10 µM) | Expression of APP (APP; 100 µM) | LogKIAM/W [2] | Expression of Aβ-42 (Aβ-42; 1 µM) | Expression of Aβ-42 (Aβ-42; 10 µM) | Expression of Aβ-42 (Aβ-42; 100 µM) | Aβ-42 production, effect in words (Aβ-42; 1 µM to 100 µM, without affecting the APP level) | Papp at 18 h, 500 µM [1, 4] [nm/s] | Papp at 2 h, 500 µM ([3]; pH 6.5, 2 h of incubation) [nm/s] | Papp at 2 h, 500 µM ([3]; pH 7.4, 2 h of incubation) [nm/s] |
| --- | --- | --- | --- | --- | --- | --- | --- | --- | --- | --- | --- | --- | --- |
| C[C@@H](C(=O)N[C@H]1C(=O)N(C)c2ccccc2-c2ccccc21)c1ccc(-c2ccccc2)c(F)c1 [Compound 4, (2R)-2-(2-Fluoro-1,1'-biphenyl-4-yl)-N-[(7R)-5-methyl-6-oxo-6,7-dihydro-5H-dibenzo[b,d]azepin-7-yl]propanamide] | ≥ 40 | 100 to 103 | (51.3 ± 2.6) × 10^−2 | (39.9 ± 1.6) × 10^−2 | (60.1 ± 2.7) × 10^−2 | 3.21 | (11.0 ± 0.4) × 10^−2 | (12.1 ± 0.4) × 10^−2 | (16.2 ± 0.7) × 10^−2 |  |  |  |  |
| C[C@@H](C(=O)N[C@@H]1C(=O)N(C)c2ccccc2-c2ccccc21)c1ccc(-c2ccccc2)c(F)c1 [Compound 5, (2R)-2-(2-Fluoro-1,1'-biphenyl-4-yl)-N-[(7S)-5-methyl-6-oxo-6,7-dihydro-5H-dibenzo[b,d]azepin-7-yl]propanamide] |  | 102 to 103 | (41.1 ± 1.7) × 10^−2 | (44.2 ± 2.1) × 10^−2 | (49.2 ± 3.2) × 10^−2 | 3.93 | (17.4. ± 0.3) × 10^−2 | (17.1 ± 0.6) × 10^−2 | (17.4. ± 0.5) × 10^−2 |  |  |  |  |
| C[C@H](C(=O)N[C@H]1C(=O)N(C)c2ccccc2-c2ccccc21)c1ccc(-c2ccccc2)c(F)c1 [Compound 6, (2S)-2-(2-Fluoro-1,1'-biphenyl-4-yl)-N-[(7R)-5-methyl-6-oxo-6,7-dihydro-5H-dibenzo[b,d]azepin-7-yl]propanamide] |  | 104 to 105 | (11.3 ± 0.4) × 10^−2 | (10.4 ± 0.2) × 10^−2 | (13.5 ± 0.5) × 10^−2 | 3.93 | (19.0 ± 0.6) × 10^−2 | (16.2 ± 0.5) × 10^−2 | (13.4 ± 0.7) × 10^−2 |  |  |  |  |
| C[C@H](C(=O)N[C@@H]1C(=O)N(C)c2ccccc2-c2ccccc21)c1ccc(-c2ccccc2)c(F)c1 [Compound 7, (2S)-2-(2-Fluoro-1,1'-biphenyl-4-yl)-N-[(7S)-5-methyl-6-oxo-6,7-dihydro-5H-dibenzo[b,d]azepin-7-yl]propanamide] | ≥ 40 | 102 to 104 | (9.0 ± 0.3) × 10^−2 | (8.0 ± 0.3) × 10^−2 | (10.1 ± 3.2) × 10^−2 | 3.21 | (12.4. ± 0.1) × 10^−2 | (11.1 ± 0.3) × 10^−2 | (9.2 ± 0.3) × 10^−2 | highly effective |  |  |  |
| C[C@H](NC(=O)Cc1cc(F)cc(F)c1)C(=O)N[C@H](C(=O)OC(C)(C)C)c1ccccc1 [DAPT, reference compound] |  |  | (65.4 ± 2.8) × 10−2 | (62.1 ± 2.8) × 10−2 | (58.3 ± 1.9) × 10−2 | 1.61 | (8.3 ± 0.2) × 10−2 | (6.4 ± 0.1) × 10−2 | (5.5 ± 0.3) × 10−2 |  | 22 | 25 | 26 |
| C[C@H](NC(=O)[C@@H](O)c1cc(F)cc(F)c1)C(=O)N[C@@H]1C(=O)N(C)c2ccccc2-c2ccccc21 [LY-411575, reference compound] |  |  | (64.0 ± 2.4) × 10^−2 | (54.7 ± 2.0) × 10^−2 | (57.2 ± 1.2) × 10^−2 | 1.85 | (8.2 ± 0.1) × 10^−2 | (6.0 ± 0.1) × 10^−2 | (4.1 ± 0.2) × 10^−2 |  | 20 | 23 | 25 |
| CC(C)[C@H](O)C(=O)N[C@@H](C)C(=O)N[C@@H]1C(=O)N(C)CCc2ccccc21 [LY-450139, reference compound] |  |  | (65.9 ± 2.3) × 10^−2 | (60.0 ± 1.6) × 10^−2 | (58.8 ± 2.5) × 10^−2 | 0.11 | (9.4. ± 0.3) × 10^−2 | (5.1 ± 0.1) × 10^−2 | (5.4 ± 0.2) × 10^−2 |  | 14 | 16 | 18 |
| C[C@@H](C(=O)O)c1ccc(-c2ccccc2)c(F)c1 [R-FLU, (R)-enantiomer of flurbiprofen, reference compound] | ≥ 20 |  | (60.0 ± 1.3) × 10^−2 | (54.5 ± 2.3) × 10^−2 | (52.1 ± 2.1) × 10^−2 | 1.82 | (20.5 ± 0.7) × 10^−2 | (19.1 ± 0.5) × 10^−2 | (14.1 ± 0.7) × 10^−2 |  | 16 | 24 | 21 |
| C[C@H](C(=O)O)c1ccc(-c2ccccc2)c(F)c1 [S-Flurbiprofen, reference compound] |  |  | (60.6 ± 2.5) × 10^−2 | (65.2 ± 1.8) × 10^−2 | (53.2 ± 1.9) × 10^−2 |  | (18.8. ± 0.6) × 10^−2 | (19.0 ± 0.7) × 10^−2 | (15.4 ± 0.3) × 10^−2 |  |  |  |  |

From paper PMC6270570, “New Flurbiprofen Derivatives: Synthesis, Membrane Affinity and Evaluation of in Vitro Effect on β-Amyloid Levels” (Molecules, 2013)
